Patent US12215106B2, “Pharmaceutical compounds and therapeutic methods” (RUTGERS, THE STATE UNIVERSITY OF NEW JERSEY, priority 2018, dated 2025)
Counter-ions that a name gives are not always drawn. Like-named read-outs stand apart in the source and are kept apart here. Marks after values point to notes of the source that are not given here.

Assay: Plasma pharmacokinetics and brain distribution after single IV, IP and oral administration
Format: in vivo
Conditions: male, C57BL/6, mouse
Experimental: (§1) The objective of this study was to investigate the plasma pharmacokinetics and brain distribution of Compound (14 in male C57BL/6 mice following a single intravenous, intraperitoneal and oral administration. A group of sixty-three male mice were divided into three groups (Group 1: 2 mg/kg/IV; Group 2: 10 mg/kg/IP and Group 3: 10 mg/kg/PO) with each group comprising of twenty-one mice.
Animals in Group 1 were administered intravenously with Compound 15 solution formulation in 5% NMP, 5% Solutol HS-15, 30% PEG-400 and 60% Captisol (20% w/v) at 2 mg/kg dose. […] Considering mortality intravenous dose was reduced to 2 mg/kg.
Animals in Group 2 and 3 were administered with Compound 15 solution formulation in 5% NMP, 5% Solutol HS-15, 30% PEG-400 and 60% Captisol (20% w/v) at a dose of 10 mg/kg by intraperitoneal and oral route respectively.
(§2) Blood samples (approximately 60 μL) were collected under light isoflurane anesthesia from retro orbital plexus from a set of three mice at 0.08, 0.35, 1, 3, 6, 12 and 24 hr. Plasma samples were separated by centrifugation of whole blood and stored below −70±10° C. until bioanalysis. Immediately after collection of blood, brain samples were collected from set of three mice at each time point. Brain samples were homogenized using ice-cold phosphate buffer saline (pH-7.4) in a ratio of 2 (buffer):1(brain); and homogenates were stored below −70±10° C. until analysis. Total homogenate volume was three times the brain weight. All samples were processed for analysis by protein precipitation using acetonitrile and analyzed with fit-for-purpose LC/MS/MS method (LLOQ2.00 ng/mL for plasma and 3.00 ng/g for brain). Pharmacokinetic parameters were calculated using the non-compartmental analysis tool of Phoenix WinNonlin® (Version 7.0). Pharmacokinetic parameters of Compound 15 are summarized below.
as §1, with “Compound 16” for “Compound (14”, “1: 10” for “1: 2”
Animals in Group 1 were administered intravenously with Compound 16 solution formulation in 5% NMP, 5% Solutol HS-15 and 90% normal saline at 10 mg/kg dose.
Animals in Group 2 and 3 were administered with Compound 16 solution formulation in 5% NMP, 5% Solutol HS-15 and 90% normal saline at a dose of 10 mg/kg by intraperitoneal and oral route respectively.
as §2, with “(LLOQ—1.00” for “(LLOQ2.00”, “16” for “15”
as §1, with “17” for “(14”, “mice. […]” for “mice.”

[1] = brain, ip, 10 mg/kg, IP 10 mg/kg, read-out: Brain-to-plasma ratio
[2] = brain, po, 10 mg/kg, PO 10 mg/kg, read-out: Brain-to-plasma ratio
[3] = brain/plasma, iv, 10 mg/kg, IV 10 mg/kg, read-out: Brain-to-plasma ratio
[4] = in vivo, ip, 10 mg/kg, Brain concentration, individual animal
[5] = in vivo, ip, 10 mg/kg, Mean brain conc.
[6] = in vivo, ip, 10 mg/kg, Mean plasma conc.
[7] = in vivo, ip, 10 mg/kg, Plasma concentration, individual animal
[8] = in vivo, iv, 10 mg/kg, Brain concentration, individual animal
[9] = in vivo, iv, 10 mg/kg, Mean brain conc.
[10] = in vivo, iv, 10 mg/kg, Mean plasma conc.
[11] = in vivo, iv, 10 mg/kg, Plasma concentration, individual animal
[12] = in vivo, po, 10 mg/kg, Brain concentration, individual animal
[13] = in vivo, po, 10 mg/kg, Mean brain conc.
[14] = in vivo, po, 10 mg/kg, Mean plasma conc.
[15] = in vivo, po, 10 mg/kg, Plasma concentration, individual animal

Work on `Cc1nc2ccccn2c1-c1csc(Nc2ccc3c(c2)OC(F)(F)O3)n1` [Compound 16, N-(2,2-difluorobenzo[d][1,3]dioxol-5-yl)-4-(2-methylimidazo[1,2-a]pyridin-3-yl)thiazol-2-amine hydrochloride] yielded a Kp at 3 h (brain and plasma, iv, 10 mg/kg, IV 10 mg/kg, read-out: Brain-to-plasma ratio) of 1.6, a Kp at 0.08 h [1] of 0.78 and a Kp at 0.35 h [1] of 1.6. For the same compound, the Kp at 1 h [1] was 2.01, the Kp at 3 h [1] was 4.34 and the Kp (brain, ip, 10 mg/kg, IP 10 mg/kg, read-out: brain-to-plasma ratio, range over time) was 0.78 to 4.34. For the same compound, the Kp (brain, iv, 10 mg/kg, IV 10 mg/kg, read-out: brain-to-plasma ratio, range over time) was 0.96 to 2.78, the Kp at 0.08 h [2] was 1.07 and the Kp at 0.35 h [2] was 1.83. It also gave a Kp at 1 h [2] of 1.67, a Kp at 3 h [2] of 1.73 and a Kp at 6 h (brain, po, 10 mg/kg, PO 10 mg/kg, 6 hr, read-out: Brain-to-plasma ratio) of 1.81. The Kp (brain, po, 10 mg/kg, PO 10 mg/kg, read-out: brain-to-plasma ratio, range over time) was 1.07 to 1.81, the Kp (brain, po, 10 mg/kg, summary data, read-out: Brain to plasma ratio following a single oral dose) was 1.81 and the Kp at 0.08 h [3] was 1.05. The Kp at 0.35 h [3] was 0.96, the Kp at 1 h [3] was 2.78 and the “Brain concentrations quantifiable up to” value (in vivo, ip, 10 mg/kg) was “up to 3 hr”. For the same compound, the “Plasma concentrations quantifiable up to” value (in vivo, ip, 10 mg/kg) was “up to 3 hr”, the “Brain concentration, individual animal” value (in vivo, ip, 10 mg/kg, 6 h) was 0.00 ng/g and the “Plasma concentration, individual animal” value (in vivo, ip, 10 mg/kg, 6 h) was 0.00 ng/mL. For the same compound, the “Brain concentration, individual animal” value (in vivo, ip, 10 mg/kg, 12 h) was 0.00 ng/g, the “Plasma concentration, individual animal” value (in vivo, ip, 10 mg/kg, 12 h) was 0.00 ng/mL and the “Brain concentration, individual animal” value (in vivo, ip, 10 mg/kg, 24 h) was 0.00 ng/g. The “Plasma concentration, individual animal” value (in vivo, ip, 10 mg/kg, 24 h) was 0.00 ng/mL, the concentration at 6 h [4] was 0 ng/g and the concentration at 12 h [4] was 0 ng/g. For the same compound, the concentration at 24 h [4] was 0 ng/g, the concentration at 0.08 h [5] was 558 ng/g and the concentration at 0.35 h [5] was 680 ng/g. It also gave a concentration at 1 h [5] of 159 ng/g, a concentration at 3 h [5] of 6.21 ng/g and a concentration at 6 h [5] of 0 ng/g. It also gave a concentration at 12 h [5] of 0 ng/g, a concentration at 24 h [5] of 0 ng/g and a concentration at 0.08 h [6] of 713 ng/mL. For the same compound, the concentration at 0.35 h [6] was 426 ng/mL, the concentration at 1 h [6] was 79.1 ng/mL and the concentration at 3 h [6] was 1.43 ng/mL. It also gave a concentration at 6 h [6] of 0 ng/mL, a concentration at 12 h [6] of 0 ng/mL and a concentration at 24 h [6] of 0 ng/mL. The concentration at 0.08 h [7] was 688 ng/mL, the concentration at 0.35 h [7] was 391 ng/mL and the concentration at 1 h [7] was 62 ng/mL. For the same compound, the concentration at 6 h [7] was 0 ng/mL, the concentration at 12 h [7] was 0 ng/mL and the concentration at 24 h [7] was 0 ng/mL. The “Brain concentrations quantifiable up to” value (in vivo, iv, 10 mg/kg) was “up to 6 hr”, the “Vss, fold more than normal volume of total body water (0.7 L/kg)” value (in vivo, iv, 10 mg/kg) was 6.6 fold and the “Plasma concentration, individual animal” value (in vivo, iv, 10 mg/kg, 6 hr) was 0.00 ng/mL. For the same compound, the “Brain concentration, individual animal” value (in vivo, iv, 10 mg/kg, 12 hr) was 0.00 ng/g, the “Plasma concentration, individual animal” value (in vivo, iv, 10 mg/kg, 12 hr) was 0.00 ng/mL and the “Brain concentration, individual animal” value (in vivo, iv, 10 mg/kg, 24 hr) was 0.00 ng/g. The “Plasma concentration, individual animal” value (in vivo, iv, 10 mg/kg, 24 hr) was 0.00 ng/mL, the concentration at 12 hr [8] was 0 ng/g and the concentration at 24 hr [8] was 0 ng/g. For the same compound, the concentration at 0.08 h [9] was 1660 ng/g, the concentration at 0.35 h [9] was 514 ng/g and the concentration at 1 h [9] was 225 ng/g. It also gave a concentration at 3 h [9] of 9.01 ng/g, a concentration at 6 hr [9] of 5.13 ng/g and a concentration at 12 hr [9] of 0 ng/g. The concentration at 24 hr [9] was 0 ng/g, the concentration at 0.08 h [10] was 1580 ng/mL and the concentration at 0.35 h [10] was 535 ng/mL. The concentration at 1 h [10] was 80.7 ng/mL, the concentration at 3 h [10] was 5.64 ng/mL and the concentration at 6 hr [10] was 0 ng/mL. The concentration at 12 hr [10] was 0 ng/mL, the concentration at 24 hr [10] was 0 ng/mL and the concentration at 0.08 hr [11] was 2190 ng/mL. For the same compound, the concentration at 0.35 hr [11] was 417 ng/mL, the concentration at 1 hr [11] was 60.9 ng/mL and the concentration at 6 hr [11] was 0 ng/mL. For the same compound, the concentration at 12 hr [11] was 0 ng/mL, the concentration at 24 hr [11] was 0 ng/mL and the “Brain concentrations quantifiable up to” value (in vivo, po, 10 mg/kg) was “up to 12 hr”. The “Plasma concentrations quantifiable up to” value (in vivo, po, 10 mg/kg) was “up to 6 hr”, the “Brain concentration, individual animal” value (in vivo, po, 10 mg/kg, 0.08 h) was 115.35 ng/g and the Mean plasma conc. (in vivo, po, 10 mg/kg, 3 h) was 3.35^f ng/mL. The “Plasma concentration, individual animal” value (in vivo, po, 10 mg/kg, 12 h) was 0.00 ng/mL, the “Plasma concentration, individual animal” value (in vivo, po, 10 mg/kg, 24 h) was 0.00 ng/mL and the concentration at 0.08 h [12] was 221 ng/g. It also gave a concentration at 24 h [12] of 0 ng/g, a concentration at 0.08 h [13] of 187 ng/g and a concentration at 0.35 h [13] of 254 ng/g. The concentration at 1 h [13] was 48.9 ng/g, the concentration at 3 h [13] was 5.78 ng/g and the concentration at 6 h [13] was 4.52 ng/g. For the same compound, the concentration at 12 h [13] was 3.9 ng/g, the concentration at 24 h [13] was 0 ng/g and the concentration at 0.08 h [14] was 175 ng/mL. For the same compound, the concentration at 0.35 h [14] was 138 ng/mL, the concentration at 1 h [14] was 29.3 ng/mL and the concentration at 3 h [14] was 3.35 ng/mL. The concentration at 6 h [14] was 2.5 ng/mL, the concentration at 12 h [14] was 0 ng/mL and the concentration at 24 h [14] was 0 ng/mL. The concentration at 12 h [15] was 0 ng/mL, the concentration at 24 h [15] was 0 ng/mL and the bioavailability (plasma, po, 10 mg/kg, PO 10 mg/kg, AUClast considered, read-out: Oral bioavailability, % F) was 20%. The bioavailability (plasma, po, 10 mg/kg, summary data, read-out: Oral bioavailability) was 20%, the Tmax (plasma, IP 10 mg/kg) was 4.8 min and the clearance (plasma, IV 10 mg/kg, read-out: CL, plasma clearance) was 230 mL/min/kg. For the same compound, the half-life (plasma, IV 10 mg/kg, read-out: T1/2, terminal elimination half-life (converted)) was 25.8 min and the Tmax (plasma, PO 10 mg/kg) was 4.8 min.
